pEC50, pIC50: −log10 of the molar value. Read-outs that look alike come from different tables or passages of the source. Numbered stars: 1 amine (or outer) side, 2 acyl side, 3 side chain; on linkers, the order of the positions; unused ones are H or OH. Square brackets hold non-standard residues; d marks the D form. Side chains are listed from the residue outwards. Peptide text beside a SMILES is read from it. * marks the point of attachment. Decanoyl(10-(4-HOOC-PhO)) = O=C(O)c1ccc(OCCCCCCCCCC(=O)*)cc1; γGlu = O=C(O)[C@H](CCC(=O)[*:2])N[*:1]; εLys = N[C@@H](CCCCN[*:1])C(=O)[*:2]; AEEA = NCCOCCOCC(=O)O; Aib = CC(C)(N)C(=O)O

The record followed here is patent US10604554B2, “Double-acylated GLP-1 derivatives” (Novo Nordisk A/S, priority 2012, dated 2020).

The target of assay [1] is T1, human GLP-1 receptor (Homo sapiens, UniProt P43220).
T1 construct: expressed in transfected cells; host or cells: BHK cells, clone FCW467-12A/KZ10-1 (parent line BHKTS13), further transfected with CRE luciferase
In words: In vitro potency (CRE luciferase; whole cells). The class given is cell-based. The settings on record: for pEC50: BHK cells; for EC50/pM (ratio 1% HSA/0% HSA): ratio of EC50 at 1% HSA to EC50 at 0% HSA. The arrangement: EC50/pM (ratio 1% HSA/0% HSA): unit not given here. Put shortly:
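Reporter: CRE-luciferase in BHK cells stably expressing human GLP-1R, 5×10^3 cells/well; compounds tested in buffer containing 0% or 1% HSA.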

Assay [2] addresses T1, human GLP-1 receptor. Kind of assay: GLP-1 receptor binding (SPA, displacement of 125I-GLP-1). Put shortly:
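Tracer [125I]-GLP-1(7-36)NH2 at 0.06 nM final competed on hamster stably transfected cell membranes captured by WGA SPA beads; 120 min, 30 °C, scintillation count.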

The mark [3] stands for this setting: In vitro potency (CRE luciferase) EC50 (0% HSA), 0% HSA.
Setting [4] is: Receptor binding affinity IC50 (high HSA), 2.0% HSA (high albumin).
Setting [5] is: Receptor binding affinity IC50 (low HSA), 0.001% HSA (low albumin).
The mark [6] stands for this setting: In vitro potency (CRE luciferase) EC50 (1% HSA), 1% HSA.

T1 sequence (P43220 24-463): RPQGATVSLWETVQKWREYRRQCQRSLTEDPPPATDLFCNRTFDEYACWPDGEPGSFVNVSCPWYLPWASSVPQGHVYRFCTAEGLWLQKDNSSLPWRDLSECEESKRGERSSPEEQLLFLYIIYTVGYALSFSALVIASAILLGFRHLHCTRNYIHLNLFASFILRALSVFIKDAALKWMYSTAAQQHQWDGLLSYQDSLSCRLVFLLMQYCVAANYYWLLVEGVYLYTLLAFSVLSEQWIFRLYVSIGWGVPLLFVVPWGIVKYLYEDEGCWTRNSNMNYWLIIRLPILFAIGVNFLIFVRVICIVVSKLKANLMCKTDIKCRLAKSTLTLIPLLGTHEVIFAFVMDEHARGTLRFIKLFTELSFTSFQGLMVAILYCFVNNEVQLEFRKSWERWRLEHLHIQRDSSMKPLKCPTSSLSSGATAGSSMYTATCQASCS

In general, pEC50 refers to the EC50 on a negative log10 scale, so that one unit is a factor of ten. In general, pIC50 refers to −log10 of the IC50, conventionally taken in molar units. As for `CC[C@H](C)[C@H](NC(=O)[C@H](Cc1ccccc1)NC(=O)[C@H](CCC(=O)O)NC(=O)[C@H](CCCCNC(=O)[C@@H](N)CCCCNC(=O)CC[C@H](NC(=O)CC[C@H](NC(=O)CC[C@H](NC(=O)CCCCCCCCCCCOc1ccc(C(=O)O)cc1)C(=O)O)C(=O)O)C(=O)O)NC(=O)[C@H](C)NC(=O)[C@H](C)NC(=O)[C@H](CCC(N)=O)NC(=O)CNC(=O)[C@H](CCC(=O)O)NC(=O)[C@H](CC(C)C)NC(=O)[C@H](Cc1ccc(O)cc1)NC(=O)[C@H](CO)NC(=O)[C@H](CO)NC(=O)[C@@H](NC(=O)[C@H](CC(=O)O)NC(=O)[C@H](CO)NC(=O)[C@@H](NC(=O)[C@H](Cc1ccccc1)NC(=O)[C@@H](NC(=O)CNC(=O)[C@H](CCC(=O)O)NC(=O)C(C)(C)NC(=O)[C@@H](N)Cc1c[nH]cn1)[C@@H](C)O)[C@@H](C)O)C(C)C)C(=O)N[C@@H](C)C(=O)N[C@@H](Cc1c[nH]c2ccccc12)C(=O)N[C@@H](CC(C)C)C(=O)N[C@H](C(=O)N[C@@H](CCCNC(=N)N)C(=O)NCC(=O)N[C@@H](CCCNC(=N)N)C(=O)N[C@@H](CCCCNC(=O)[C@@H](N)CCCCNC(=O)CC[C@H](NC(=O)CC[C@H](NC(=O)CC[C@H](NC(=O)CCCCCCCCCCCOc1ccc(C(=O)O)cc1)C(=O)O)C(=O)O)C(=O)O)C(=O)O)C(C)C` [Example 17, N^ε26-[(2S)-2-amino-6-[[(4S)-4-carboxy-4-[[(4S)-4-carboxy-4-[[(4S)-4-carboxy-4-[12-(4-carboxyphenoxy)dodecanoylamino]butanoyl]amino]butanoyl]amino]butanoyl]amino]hexanoyl], N^ε37-[(2S)-2-amino-6-[[(4S)-4-carboxy-4-[[(4S)-4-carboxy-4-[[(4S)-4-carboxy-4-[12-(4-carboxyphenoxy)dodecanoylamino]butanoyl]amino]butanoyl]amino]butanoyl]amino]hexanoyl]-[Aib^8,Arg^34,Lys^37]-GLP-1-(7-37)-peptide], at human GLP-1 receptor [1] (setting [3]), the pEC50 was 11.48. For the same compound, the pIC50 on human GLP-1 receptor [2] (setting [4]) is 6.20; on human GLP-1 receptor [2] (setting [5]), 9.38.

In the case of `CC[C@H](C)[C@H](NC(=O)[C@H](Cc1ccccc1)NC(=O)[C@H](CCC(=O)O)NC(=O)[C@H](CCCCNC(=O)[C@@H](N)CCCCNC(=O)COCCOCCNC(=O)COCCOCCNC(=O)CC[C@H](NC(=O)CCCCCCCCCOc1ccc(C(=O)O)cc1)C(=O)O)NC(=O)[C@H](C)NC(=O)[C@H](C)NC(=O)[C@H](CCC(N)=O)NC(=O)[C@H](CCC(=O)O)NC(=O)[C@H](CCC(=O)O)NC(=O)[C@H](CC(C)C)NC(=O)[C@H](Cc1ccc(O)cc1)NC(=O)[C@H](CO)NC(=O)[C@H](CO)NC(=O)[C@@H](NC(=O)[C@H](CC(=O)O)NC(=O)[C@H](CO)NC(=O)[C@@H](NC(=O)[C@H](Cc1ccccc1)NC(=O)[C@@H](NC(=O)CNC(=O)[C@H](CCC(=O)O)NC(=O)C(C)(C)NC(=O)[C@@H](N)Cc1c[nH]cn1)[C@@H](C)O)[C@@H](C)O)C(C)C)C(=O)N[C@@H](C)C(=O)N[C@@H](Cc1c[nH]c2ccccc12)C(=O)N[C@@H](CC(C)C)C(=O)N[C@H](C(=O)N[C@@H](CCC(N)=O)C(=O)NCC(=O)N[C@@H](CCCNC(=N)N)C(=O)N[C@@H](CCCCNC(=O)[C@@H](N)CCCCNC(=O)COCCOCCNC(=O)COCCOCCNC(=O)CC[C@H](NC(=O)CCCCCCCCCOc1ccc(C(=O)O)cc1)C(=O)O)C(=O)O)C(C)C` [Example 18] (H-H[Aib]EGTFTSDVSSYLEEQAAK([εLys-AEEA-AEEA-γGlu-Decanoyl(10-(4-HOOC-PhO))])EFIAWLVQGRK([εLys-AEEA-AEEA-γGlu-Decanoyl(10-(4-HOOC-PhO))])-OH; N-terminus and C-terminus assumed), the pEC50 is 10.92 at human GLP-1 receptor [1] (setting [3]) and 10.10 on human GLP-1 receptor [1] (setting [6]). The “EC50/pM (ratio 1% HSA/0% HSA)” value on human GLP-1 receptor [1] is on record as 6.9. The pIC50 at human GLP-1 receptor [2] (setting [4]) was 6.80; on human GLP-1 receptor [2] (setting [5]), 9.00.

Consider `CC[C@H](C)[C@H](NC(=O)[C@H](Cc1ccccc1)NC(=O)[C@H](CCC(=O)O)NC(=O)[C@H](CCCCNC(=O)[C@@H](N)CCCCNC(=O)COCCOCCNC(=O)COCCOCCNC(=O)CC[C@H](NC(=O)CCCCCCCCCCCCC(=O)O)C(=O)O)NC(=O)[C@H](C)NC(=O)[C@H](C)NC(=O)[C@H](CCC(N)=O)NC(=O)CNC(=O)[C@H](CCC(=O)O)NC(=O)[C@H](CC(C)C)NC(=O)[C@H](Cc1ccc(O)cc1)NC(=O)[C@H](CO)NC(=O)[C@H](CO)NC(=O)[C@@H](NC(=O)[C@H](CC(=O)O)NC(=O)[C@H](CO)NC(=O)[C@@H](NC(=O)[C@H](Cc1ccccc1)NC(=O)[C@@H](NC(=O)CNC(=O)[C@H](CCC(=O)O)NC(=O)C(C)(C)NC(=O)[C@@H](N)Cc1c[nH]cn1)[C@@H](C)O)[C@@H](C)O)C(C)C)C(=O)N[C@@H](C)C(=O)N[C@@H](Cc1c[nH]c2ccccc12)C(=O)N[C@@H](CC(C)C)C(=O)N[C@H](C(=O)N[C@@H](CCCNC(=N)N)C(=O)NCC(=O)N[C@@H](CCCNC(=N)N)C(=O)N[C@@H](CCCCNC(=O)[C@@H](N)CCCCNC(=O)COCCOCCNC(=O)COCCOCCNC(=O)CC[C@H](NC(=O)CCCCCCCCCCCCC(=O)O)C(=O)O)C(=O)O)C(C)C` [Example 19, N^ε26-[(2S)-2-amino-6-[[2-[2-[2-[[2-[2-[2-[[(4S)-4-carboxy-4-(13-carboxytridecanoylamino)butanoyl]amino]ethoxy]ethoxy]acetyl]amino]ethoxy]ethoxy]acetyl]amino]hexanoyl], N^ε37-[(2S)-2-amino-6-[[2-[2-[2-[[2-[2-[2-[[(4S)-4-carboxy-4-(13-carboxytridecanoylamino)butanoyl]amino]ethoxy]ethoxy]acetyl]amino]ethoxy]ethoxy]acetyl]amino]hexanoyl]-[Aib^8,Arg^34,Lys^37]-GLP-1-(7-37)-peptide], for which the pEC50 at human GLP-1 receptor [1] (0% HSA, read-out: In vitro potency (CRE luciferase) EC50 (0% HSA)) is 10.60; on human GLP-1 receptor [1] (setting [6]), 10.29. Further, the “EC50/pM (ratio 1% HSA/0% HSA)” value on human GLP-1 receptor [1] came to 2.5. In addition, the pIC50 at human GLP-1 receptor [2] (0.001% HSA (low albumin), read-out: Receptor binding affinity IC50 (low HSA)) is 9.11. In addition, the IC50 (high HSA) at human GLP-1 receptor [2] (Receptor binding affinity IC50 (high HSA), 2.0% HSA (high albumin), heading: Receptor binding affinity IC50) was determined as 147 nM.

`CC[C@H](C)[C@H](NC(=O)[C@H](Cc1ccccc1)NC(=O)[C@H](CCC(=O)O)NC(=O)[C@H](CCCCNC(=O)[C@@H](N)CCCCNC(=O)[C@@H](N)CCCCNC(=O)CC[C@H](NC(=O)CCCCCCCCCCOc1ccc(C(=O)O)cc1)C(=O)O)NC(=O)[C@H](C)NC(=O)[C@H](C)NC(=O)[C@H](CCC(N)=O)NC(=O)CNC(=O)[C@H](CCC(=O)O)NC(=O)[C@H](CC(C)C)NC(=O)[C@H](Cc1ccc(O)cc1)NC(=O)[C@H](CO)NC(=O)[C@H](CO)NC(=O)[C@@H](NC(=O)[C@H](CC(=O)O)NC(=O)[C@H](CO)NC(=O)[C@@H](NC(=O)[C@H](Cc1ccccc1)NC(=O)[C@@H](NC(=O)CNC(=O)[C@H](CCC(=O)O)NC(=O)C(C)(C)NC(=O)[C@@H](N)Cc1c[nH]cn1)[C@@H](C)O)[C@@H](C)O)C(C)C)C(=O)N[C@@H](C)C(=O)N[C@@H](Cc1c[nH]c2ccccc12)C(=O)N[C@@H](CC(C)C)C(=O)N[C@H](C(=O)N[C@@H](CCCNC(=N)N)C(=O)NCC(=O)N[C@@H](CCCNC(=N)N)C(=O)N[C@@H](CCCCNC(=O)[C@@H](N)CCCCNC(=O)[C@@H](N)CCCCNC(=O)CC[C@H](NC(=O)CCCCCCCCCCOc1ccc(C(=O)O)cc1)C(=O)O)C(=O)O)C(C)C` [Example 20, N^ε26-[(2S)-2-amino-6-[[(2S)-2-amino-6-[[(4S)-4-carboxy-4-[11-(4-carboxyphenoxy)undecanoylamino]butanoyl]amino]hexanoyl]amino]hexanoyl], N^ε37-[(2S)-2-amino-6-[[(2S)-2-amino-6-[[(4S)-4-carboxy-4-[11-(4-carboxyphenoxy)undecanoylamino]butanoyl]amino]hexanoyl]amino]hexanoyl]-[Aib^8,Arg^34,Lys^37]-GLP-1-(7-37)-peptide]: the pEC50 at human GLP-1 receptor [1] (setting [3]) is 11.31; at human GLP-1 receptor [1] (setting [6]), 10.20. For the same compound, the “EC50/pM (ratio 1% HSA/0% HSA)” value at human GLP-1 receptor [1] came to 13. In addition, the pIC50 was 7.32 on human GLP-1 receptor [2] (setting [4]) and 9.89 on human GLP-1 receptor [2] (setting [5]).
